Laboratory results taken from PubChem BioAssay AID2060617 (Molecular Pharmacology Branch, DTP, NCI, 2025).

System: 485368-065-R4-J2-PDC spheroids with HUVEC/MSC, viability
Experiment: Anticancer human tumor 485368-065-R4-J2-PDC patient-derived pancreatic carcinoma cell line growth inhibition [CLK]
Conditions: for IC50: curve of first compound; for viability, T/C: stronger effect = lower value
Method in brief: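 Multi-cell-type spheroids combined patient-derived tumor cells with HUVEC endothelial cells and human mesenchymal stem cells. Paired agents were dosed in half-log steps down from about clinical Cmax, or from 10 microM where Cmax was unknown.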

[1] = second compound 0.0316 µM, first compound 0.0316 µM
[2] = second compound 0.0316 µM, first compound 0.1 µM
[3] = second compound 0.0316 µM, first compound 0.316 µM
[4] = second compound 0.0316 µM, first compound 1 µM
[5] = second compound 0.0316 µM, first compound 3.16 µM
[6] = second compound 0.0316 µM, first compound 10 µM
[7] = second compound 0.1 µM, first compound 0.0316 µM
[8] = second compound 0.1 µM, first compound 0.1 µM
[9] = second compound 0.1 µM, first compound 0.316 µM
[10] = second compound 0.1 µM, first compound 1 µM
[11] = second compound 0.1 µM, first compound 3.16 µM
[12] = second compound 0.1 µM, first compound 10 µM
[13] = second compound 0.316 µM, first compound 0.0316 µM
[14] = second compound 0.316 µM, first compound 0.1 µM
[15] = second compound 0.316 µM, first compound 0.316 µM
[16] = second compound 0.316 µM, first compound 1 µM
[17] = second compound 0.316 µM, first compound 3.16 µM
[18] = second compound 0.316 µM, first compound 10 µM
[19] = second compound 1 µM, first compound 0.0316 µM
[20] = second compound 1 µM, first compound 0.1 µM
[21] = second compound 1 µM, first compound 0.316 µM
[22] = second compound 1 µM, first compound 1 µM
[23] = second compound 1 µM, first compound 3.16 µM
[24] = second compound 1 µM, first compound 10 µM
[25] = second compound 3.16 µM, first compound 0.0316 µM
[26] = second compound 3.16 µM, first compound 0.1 µM
[27] = second compound 3.16 µM, first compound 0.316 µM
[28] = second compound 3.16 µM, first compound 1 µM
[29] = second compound 3.16 µM, first compound 3.16 µM
[30] = second compound 3.16 µM, first compound 10 µM
[31] = second compound 10 µM, first compound 0.0316 µM
[32] = second compound 10 µM, first compound 0.1 µM
[33] = second compound 10 µM, first compound 0.316 µM
[34] = second compound 10 µM, first compound 1 µM
[35] = second compound 10 µM, first compound 3.16 µM
[36] = second compound 10 µM, first compound 10 µM
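Also: spheroids exposed to compounds for seven days.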
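For viability, T/C in this document: 100% = DMSO vehicle control wells.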

`O=C(c1cc(Cc2n[nH]c(=O)c3ccccc23)ccc1F)N1CCN(C(=O)C2CC2)CC1` + CNC(=O)c1ccc(Nc2nc(OC3CCCC3)c3c(-c4ccc5nc(C)oc5c4)c[nH]c3n2)c(OC)c1 gave an IC50 (second compound 0.0316 µM) greater than 10 µM, an IC50 (second compound 0.1 µM) greater than 10 µM and an IC50 (second compound 0.316 µM) greater than 10 µM. It also gave an IC50 (second compound 1 µM) greater than 10 µM, an IC50 (second compound 3.16 µM) greater than 10 µM and an IC50 (second compound 10 µM) greater than 10 µM. The viability, T/C [1] was 88%, the viability, T/C [2] was 101% and the viability, T/C [3] was 94.5%. The viability, T/C [4] was 102%, the viability, T/C [5] was 106% and the viability, T/C [6] was 100%. The viability, T/C [7] was 97.5%, the viability, T/C [8] was 106% and the viability, T/C [9] was 104%. The viability, T/C [10] was 106%, the viability, T/C [11] was 101% and the viability, T/C [12] was 86.1%. The viability, T/C [13] was 87.9%, the viability, T/C [14] was 91% and the viability, T/C [15] was 91.6%. It also gave a viability, T/C [16] of 83.7%, a viability, T/C [17] of 84.3% and a viability, T/C [18] of 81.7%. The viability, T/C [19] was 83.6%, the viability, T/C [20] was 83.3% and the viability, T/C [21] was 86.2%. It also gave a viability, T/C [22] of 78.3%, a viability, T/C [23] of 78.8% and a viability, T/C [24] of 71.8%. The viability, T/C [25] was 75.9%, the viability, T/C [26] was 77.6% and the viability, T/C [27] was 72.9%. The viability, T/C [28] was 73.5%, the viability, T/C [29] was 69.6% and the viability, T/C [30] was 68.2%. It also gave a viability, T/C [31] of 76.3%, a viability, T/C [32] of 86.9% and a viability, T/C [33] of 77.5%. For the same molecule, the viability, T/C [34] was 76.5%, the viability, T/C [35] was 77.3% and the viability, T/C [36] was 59.3%.
`C=C(F)C(=O)N1CCN(c2nc(OCC3CCCN3C)nc3c2CCN(c2cccc4cccc(Cl)c24)C3)CC1CC#N` (centres undefined) + CNC(=O)c1ccc(Nc2nc(OC3CCCC3)c3c(-c4ccc5nc(C)oc5c4)c[nH]c3n2)c(OC)c1 showed an IC50 (second compound 0.0316 µM) greater than 10 µM, an IC50 (second compound 0.1 µM) greater than 10 µM and an IC50 (second compound 0.316 µM) greater than 10 µM. It also gave an IC50 (second compound 1 µM) greater than 10 µM, an IC50 (second compound 3.16 µM) greater than 10 µM and an IC50 (second compound 10 µM) of 7.59 µM. The viability, T/C [1] was 83.5%, the viability, T/C [2] was 105% and the viability, T/C [3] was 85.8%. For the same molecule, the viability, T/C [4] was 101%, the viability, T/C [5] was 115% and the viability, T/C [6] was 99%. It also gave a viability, T/C [7] of 98.2%, a viability, T/C [8] of 95.4% and a viability, T/C [9] of 107%. It also gave a viability, T/C [10] of 112%, a viability, T/C [11] of 111% and a viability, T/C [12] of 108%. It also gave a viability, T/C [13] of 79.8%, a viability, T/C [14] of 80.9% and a viability, T/C [15] of 89.1%. For the same molecule, the viability, T/C [16] was 92.9%, the viability, T/C [17] was 82.7% and the viability, T/C [18] was 93.5%. For the same molecule, the viability, T/C [19] was 81.9%, the viability, T/C [20] was 79.7% and the viability, T/C [21] was 77.6%. The viability, T/C [22] was 78.5%, the viability, T/C [23] was 94.5% and the viability, T/C [24] was 107%. For the same molecule, the viability, T/C [25] was 74.4%, the viability, T/C [26] was 70.2% and the viability, T/C [27] was 76.1%. The viability, T/C [28] was 78.1%, the viability, T/C [29] was 80.9% and the viability, T/C [30] was 90.4%. For the same molecule, the viability, T/C [31] was 71.6%, the viability, T/C [32] was 76.4% and the viability, T/C [33] was 76.1%. The viability, T/C [34] was 80%, the viability, T/C [35] was 71.3% and the viability, T/C [36] was 43%.
